{
  "source": "PubChem BioAssay AID1845212",
  "about": "(Molecular Pharmacology Branch, DTP, NCI, 2023)",
  "tested_on": "NCI-H719 tumor spheroids, viability",
  "experiment": "Anticancer human tumor NCI-H719 cell line growth inhibition;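 further: spheroids exposed to compounds for seven days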;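 on viability, T/C: percent viability relative to DMSO vehicle control as 100%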",
  "details": "spheroids with HUVEC and MSC; for pIC50: curve of first compound; for viability, T/C: stronger effect = lower value",
  "description": "Multicellular complex tumor spheroid response to DNA repair inhibitors in combination with DNA-damaging drugs\nThis study explores the anticancer activities of DNA-damaging drugs and inhibitors of DNA damage repair, both as single agents and in combinations. Complex tumor spheroids comprised of malignant cells, endothelial cells and mesenchymal stem cells served as an in vitro model for human solid tumors. This model system incorporates physiologically relevant features and patient-derived or established malignant cell lines with clinically relevant genetic alterations from many tumor types. Twenty-six patient-derived or established malignant cell lines were evaluated representing sarcoma, melanoma, small cell lung cancer (SCLC), non-small cell lung cancer (NSCLC), as well as bladder, ovarian and pancreatic cancers. The concentration ranges selected for each drug and investigational agent were based upon clinically achievable concentrations if the clinical Cmax of the agent was known.\nCompounds. The drugs and compounds olaparib (NSC753686), talazoparib (NSC767125), berzosertib (NSC777718), elimusertib (NSC800525), nedisertib (NSC802822), VX-984 (NSC792969), AZD-1390 (NSC803789), temozolomide (NSC362856), topotecan (NSC609699), trabectedin (NSC813783), staurosporine (NSC755774), and gemcitabine (NSC613327) were obtained from the National Cancer Institute (NCI) Developmental Therapeutics Program Chemical Repository. The FDA-approved anticancer drug set is available from the Developmental Therapeutics Program at https://dtp.cancer.gov/organization/dscb/obtaining/available_plates.htm. […] The stock solutions were prepared in dimethyl sulfoxide (DMSO, Sigma-Aldrich, St. Louis, MO, cat. D2650) at 400-fold the tested concentration and stored at -70 degrees C. Prior to their use, the stock solutions were diluted in fresh medium and the final DMSO concentration in the assay was 0.25% (v/v). All drugs and investigational agents were tested over a range starting from a high concentration at or near the clinical Cmax and decreasing in half-log increments. If the clinical Cmax for an agent had not been determined, the highest concentration tested was 10 microM.\nCell Lines. The patient-derived cancer cell (PDC) lines: 156681-154-R-J1-PDC, 283228-195-R-J1-PDC, 287954-098-R-J1-PDC, 292921-168-R-J2-PDC, 349418-098-R-PDC, 425362-245-T-J1-PDC, 556581-035-R-J1-PDC, and BL0293-F563-PDC were received from the NCI Patient-Derived Models Repository (PDMR, https://pdmr.cancer.gov). The established cell lines HS-SY-2 (RRID:CVCL_8719), MPNST, and SYO-1 (RRID:CVCL_7146) were obtained from the Sloan Kettering Institute. The alveolar soft parts sarcoma cell line ASPS-1 (RRID:CVCL_S738) was established at the NCI and grown from internal seed stocks. The following established cell lines were purchased from the American Type Culture Collection (ATCC, Manassas, VA): G-401 (ATCC, cat. CRL-1441, RRID:CVCL_0270), SW982 (ATCC, cat. HTB-93, RRID:CVCL_1734), VA-ES-BJ (ATCC, cat. CRL-2138, RRID:CVCL_1785), NCI-H719 (ATCC, cat. CRL-5837, RRID:CVCL_1582), NCI-H196 (ATCC, cat. CRL-5823, RRID:CVCL_1509), NCI-H841 (ATCC, cat. CRL-5845, RRID:CVCL_1595), NCI-H1618 (ATCC, cat. CRL-5879, RRID:CVCL_1480), NCI-H1876 (ATCC, cat. CRL-5902, RRID:CVCL_1503), DMS 114 (ATCC, cat. CRL-2066; RRID:CVCL_1174), NCI-H211 (ATCC, cat. CRL-5824; RRID:CVCL_1529), and SW 1271 (ATCC, cat. CRL-2177, RRID:CVCL_1716). The small cell lung cancer cell line COR-L88 was purchased from Sigma-Aldrich (cat. 92031917-1VL, RRID:CVCL_1141). The non-small cell lung cancer cell lines NCI-H226 (RRID:CVCL_1544) and NCI-H322M (RRID:CVCL_1557) were established at the NCI and grown from internal seed stocks. Pooled donor human umbilical vein endothelial cells (HUVEC, Lonza, cat. CC-2519) and human mesenchymal stem cells (hMSC, Lonza, cat. PT-2501) were purchased from Lonza (Walkersville, MD).\nCell Culture. All cells were maintained in an incubator at 37 degrees C and 5% CO2 with 95% humidity. […]",
  "note": "pIC50: −log10 of the molar value.",
  "data": [
    {"smiles": "[2H]c1nc(C)nc([2H])c1-c1cc(NC[C@@H](C)c2cccc3c(C(=O)NC)ccnc23)ncn1", "note": "+ CC[C@@]1(O)C(=O)OCc2c1cc1n(c2=O)Cc2cc3c(CN(C)C)c(O)ccc3nc2-1", "values": [
      {"measurement": "pIC50", "setting": "second compound 0.003 µM", "result": "< 5.00"},
      {"measurement": "pIC50", "setting": "second compound 0.00949 µM", "result": "> 7.50"},
      {"measurement": "pIC50", "setting": "second compound 0.03 µM", "result": "> 7.50"},
      {"measurement": "pIC50", "setting": "second compound 0.0949 µM", "result": "> 7.50"},
      {"measurement": "pIC50", "setting": "second compound 0.3 µM", "result": "> 7.50"},
      {"measurement": "viability, T/C", "setting": "second compound 0.003 µM, first compound 0.0316 µM", "result": 51, "unit": "%"},
      {"measurement": "viability, T/C", "setting": "second compound 0.003 µM, first compound 0.1 µM", "result": 62.2, "unit": "%"},
      {"measurement": "viability, T/C", "setting": "second compound 0.003 µM, first compound 0.316 µM", "result": 63.5, "unit": "%"},
      {"measurement": "viability, T/C", "setting": "second compound 0.003 µM, first compound 1 µM", "result": 52, "unit": "%"},
      {"measurement": "viability, T/C", "setting": "second compound 0.003 µM, first compound 3.16 µM", "result": 66, "unit": "%"},
      {"measurement": "viability, T/C", "setting": "second compound 0.003 µM, first compound 10 µM", "result": 51.4, "unit": "%"},
      {"measurement": "viability, T/C", "setting": "second compound 0.00949 µM, first compound 0.0316 µM", "result": 10.3, "unit": "%"},
      {"measurement": "viability, T/C", "setting": "second compound 0.00949 µM, first compound 0.1 µM", "result": 8.59, "unit": "%"},
      {"measurement": "viability, T/C", "setting": "second compound 0.00949 µM, first compound 0.316 µM", "result": 8.43, "unit": "%"},
      {"measurement": "viability, T/C", "setting": "second compound 0.00949 µM, first compound 1 µM", "result": 7.06, "unit": "%"},
      {"measurement": "viability, T/C", "setting": "second compound 0.00949 µM, first compound 3.16 µM", "result": 6.95, "unit": "%"},
      {"measurement": "viability, T/C", "setting": "second compound 0.00949 µM, first compound 10 µM", "result": 9.89, "unit": "%"},
      {"measurement": "viability, T/C", "setting": "second compound 0.03 µM, first compound 0.0316 µM", "result": 7.23, "unit": "%"},
      {"measurement": "viability, T/C", "setting": "second compound 0.03 µM, first compound 0.1 µM", "result": 6.65, "unit": "%"},
      {"measurement": "viability, T/C", "setting": "second compound 0.03 µM, first compound 0.316 µM", "result": 6.56, "unit": "%"},
      {"measurement": "viability, T/C", "setting": "second compound 0.03 µM, first compound 1 µM", "result": 8.39, "unit": "%"},
      {"measurement": "viability, T/C", "setting": "second compound 0.03 µM, first compound 3.16 µM", "result": 8.61, "unit": "%"},
      {"measurement": "viability, T/C", "setting": "second compound 0.03 µM, first compound 10 µM", "result": 8.73, "unit": "%"},
      {"measurement": "viability, T/C", "setting": "second compound 0.0949 µM, first compound 0.0316 µM", "result": 7.9, "unit": "%"},
      {"measurement": "viability, T/C", "setting": "second compound 0.0949 µM, first compound 0.1 µM", "result": 7.8, "unit": "%"},
      {"measurement": "viability, T/C", "setting": "second compound 0.0949 µM, first compound 0.316 µM", "result": 7.91, "unit": "%"},
      {"measurement": "viability, T/C", "setting": "second compound 0.0949 µM, first compound 1 µM", "result": 7.63, "unit": "%"},
      {"measurement": "viability, T/C", "setting": "second compound 0.0949 µM, first compound 3.16 µM", "result": 7.79, "unit": "%"},
      {"measurement": "viability, T/C", "setting": "second compound 0.0949 µM, first compound 10 µM", "result": 9.29, "unit": "%"},
      {"measurement": "viability, T/C", "setting": "second compound 0.3 µM, first compound 0.0316 µM", "result": 8.56, "unit": "%"},
      {"measurement": "viability, T/C", "setting": "second compound 0.3 µM, first compound 0.1 µM", "result": 8.32, "unit": "%"},
      {"measurement": "viability, T/C", "setting": "second compound 0.3 µM, first compound 0.316 µM", "result": 8.45, "unit": "%"},
      {"measurement": "viability, T/C", "setting": "second compound 0.3 µM, first compound 1 µM", "result": 8.64, "unit": "%"},
      {"measurement": "viability, T/C", "setting": "second compound 0.3 µM, first compound 3.16 µM", "result": 8.15, "unit": "%"},
      {"measurement": "viability, T/C", "setting": "second compound 0.3 µM, first compound 10 µM", "result": 8.2, "unit": "%"}
    ]}
  ]
}
